Where a name gives a salt, the structure may show the parent alone. Read-outs that look alike come from different tables or passages of the source.
Legend:
[1] = test system: isolated human eccrine glands; assay: In vitro sweat reduction study on isolated human eccrine glands; assay type: cell-based
Excerpt: This example illustrates the ability of CCBAs to reduce sweat secretion from isolated human eccrine glands.
The method employed was analogous to that described by Sato and Sato in Am. J. Physiol., 1973, 225, 1147-1151.

[2] = test system: secretory coil cells of human apocrine glands; assay: Inhibition of methylcholine-induced calcium influx into human apocrine secretory coil cells (Fura-2); assay type: cell-based
Method: (§1) Collapsed segments of secretory coil were held between two glass pipettes in the perfusion bath of an inverted Olympus IMT-2 microscope and bathed in a solution at 37° C. containing (in mmol.dm^−3): sodium chloride, 130; HEPES (buffer; 4-[2-hydroxyethyl]-1-piperazineethanesulphonic acid), 20; potassium chloride, 5; calcium chloride, 1; magnesium chloride, 1; and glucose, 10. The pH of the solution was adjusted to 7.4 using 1 mol.dm^−3 sodium hydroxide solution.
Intracellular calcium concentration was measured using the fluorescent probe Fura-2, a dye that has high affinity for calcium. When illuminated with ultraviolet light at 350 and 380 nm, Fura-2 emits corresponding fluorescent signals. Importantly, when calcium binds to the dye, the magnitude of the emitted fluoresence signal alters. […]
Segments of secretory coil were incubated for 40 minutes, at 37° C., with 5 μm.dm^−3 Fura-2 AM. This form of Fura-2 is lipid soluble and readily enters the cell where the AM group is cleaved off by esterases, leaving the fluorescent lipid-insoluble dye trapped within the cells. […] The fluorescence resulting from the tissue was passed through a 505 nm bandpass filter, before being detected by a photomultiplier tube. The output from the photomultiplier tube was digitised and analysed using Photon Technology International software. […]

[3] = test system: secretory coil cells of human eccrine glands; assay: Inhibition of methylcholine-induced calcium influx into human eccrine secretory coil cells (Fura-2); assay type: cell-based
Method: The procedure is performed on an isolated human sweat gland. Collapsed segments of secretory coil are held between two glass pipettes in the perfusion bath of an inverted microscope and bathed at 37° C. in a solution buffered to pH 7.4. Intracellular calcium may be measured by any convenient means; in our tests the fluorescent dye FURA-2 AM was used (full details are given in Examples 1 and 2). The calcium influx induced by the administration of methylcholine at 1 μmol.dm^−3 is compared before and after the introduction of the test material into the buffer solution. Test materials are classed as CCBAs if they are able to reduce the methylcholine-induced calcium influx into the cells, preferably by at least 20%, more preferably by at least 50%. The concentration of test material used should be between 1 and 100 μmol.dm^−3 for pure compounds, 25 μmol.dm^−3 being a typical concentration of use. When the test material used is not a pure compound, for example when it is a plant extract, allowance must be made for the non-active components in the extract when choosing the test dosage.
as §1
The calcium influx was induced by the administration of methylcholine (a cholinergic agonist) at 1 μmol.dm^−3. This was first done for control solutions containing no CCBA and then for test solutions containing tetrandrine (various dosages).
Intracellular calcium concentration was measured using the fluorescent probe Fura-2, a dye that has high affinity for calcium. When illuminated with ultraviolet light at 350 and 380 nm, Fura-2 emits corresponding fluorescent signals. Importantly, when calcium binds to the dye, the magnitude of the emitted fluoresence signal alters. It is these changes that are used to calculate the intracellular calcium concentration (vide infra).
Segments of secretory coil were incubated for 40 minutes, at 37° C., with 5 μm.dm^−3 Fura-2 AM. This form of Fura-2 is lipid soluble and readily enters the cell where the AM group is cleaved off by esterases, leaving the fluorescent lipid-insoluble dye trapped within the cells. Excitation light at 350 and 380 nm was supplied from a computer controlled Photon Technology International (PTI) spectrofluorimeter. This light was passed through a 390 nm dichroic mirror, prior to passage through the microscope objective (×40) and onto the tissue sample. The fluorescence resulting from the tissue was passed through a 505 nm bandpass filter, before being detected by a photomultiplier tube. The output from the photomultiplier tube was digitised and analysed using Photon Technology International software. Background fluorescence (measured prior to introduction of the Fura-2 AM) was subtracted from the total signal for each wavelength and a value representing the intracellular calcium concentration was obtained by dividing the fluorescence value resulting from the 350 nm excitation light by that resulting from the 380 nm excitation light.

[4] = test system: Staphylococcus epidermidis; details: cited from earlier work
[5] = test system: isolated cannulated monkey palm eccrine sweat glands; details: in vitro; cited from earlier work

COc1ccc2cc1Oc1ccc(cc1)C[C@H]1c3cc(c(OC)cc3CCN1C)Oc1c(OC)c(OC)cc3c1[C@H](C2)N(C)CC3 [Tetrandrine, tetrandrine]
% reduction in sweat secretion ([1]; dosage 50 μmol.dm^−3): 93%
Ca influx inhibition ([2]; dosage 10 μmol.dm^−3, methylcholine 50 μmol.dm^−3): 60%
Ca influx inhibition ([2]; dosage 50 μmol.dm^−3, methylcholine 50 μmol.dm^−3): 93%
Ca influx inhibition ([3]; dosage 1 μmol.dm^−3, methylcholine 1 μmol.dm^−3): 24%
Ca influx inhibition ([3]; dosage 10 μmol.dm^−3, methylcholine 1 μmol.dm^−3): 44%
Ca influx inhibition ([3]; dosage 25 μmol.dm^−3, methylcholine 1 μmol.dm^−3): 75%
Ca influx inhibition ([3]; dosage 50 μmol.dm^−3, methylcholine 1 μmol.dm^−3): 96%
Ca influx inhibition ([3]; dosage 100 μmol.dm^−3, methylcholine 1 μmol.dm^−3): 100%

COc1ccc(CCN(C)CCCC(C#N)(c2ccc(OC)c(OC)c2)C(C)C)cc1OC (stereo not shown) [Verapamil hydrochloride]
% reduction in sweat secretion ([1]; dosage 1000 μmol.dm^−3): 93%

CCO [ethanol]
MIC ([4]; stated by contrast, no source given): greater than 1 mg.ml^−1

CC(C)=CCCC(C)=CCCC(C)=CCO [farnesol, 3,7,11-trimethyldodeca-2,6,10-trienol]
MIC ([4]; literature values): ca. 25 μg.ml^−1

Oc1cc(Cl)ccc1Oc1ccc(Cl)cc1Cl [triclosan, 2′,4,4′-trichloro, 2-hydroxy-diphenyl ether]
MIC ([4]; literature values): 0.01 to 10 µg/mL

methoxy-verapamil
effect on sweat production [5]: reduce sweat production
